Experimental data: PMC3563301 (Journal of medicinal chemistry, 2012)

Tests used:
U87MG cells [1] = experiment: Loss of mitochondrial potential; assay type: cell-based, human; conditions: 30 μM, 24 h, JC-1
[2] = system: HeLa, HT29, A549, HCT 116, and HCT 15 cell lines; experiment: Average growth inhibition over five cell lines; assay type: cell-based; conditions: Homo sapiens, read-out: average IC50 for the five cell lines, HeLa, HT-29, A549, HCT 116, HCT 15; for comparative purposes
CYP2D6 = CYP2D6 (Homo sapiens, UniProt P10635); experiment: CYP450 inhibition, CYP2D6; assay type: biochemical; conditions: recombinant CYP2D6 (Supersomes, Gentest), pH 7.4
Sequence of CYP2D6 (P10635 whole entry): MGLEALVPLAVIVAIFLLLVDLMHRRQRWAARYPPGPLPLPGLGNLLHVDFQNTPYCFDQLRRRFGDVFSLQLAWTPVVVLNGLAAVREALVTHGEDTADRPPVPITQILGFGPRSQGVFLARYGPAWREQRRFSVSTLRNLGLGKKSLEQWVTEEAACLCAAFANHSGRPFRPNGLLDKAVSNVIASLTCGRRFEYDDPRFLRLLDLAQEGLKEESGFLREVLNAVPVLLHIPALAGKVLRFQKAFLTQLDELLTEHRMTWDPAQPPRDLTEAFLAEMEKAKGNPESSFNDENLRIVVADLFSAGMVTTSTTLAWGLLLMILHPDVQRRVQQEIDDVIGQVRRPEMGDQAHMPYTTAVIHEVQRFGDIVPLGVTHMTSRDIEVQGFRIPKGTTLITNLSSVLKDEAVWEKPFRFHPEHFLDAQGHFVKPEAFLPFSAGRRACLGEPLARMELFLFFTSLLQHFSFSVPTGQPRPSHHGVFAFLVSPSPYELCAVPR

OVCAR-8 = experiment: Growth inhibition of OVCAR-8 cells; assay type: cell-based; conditions: Homo sapiens, OVCAR-8, 96 h, read-out: IC50 ± SD OVCAR-8
Caco-2 cell permeability = assay type: in vitro ADME; conditions: human
U87MG cells [3] = experiment: ROS generation; assay type: cell-based, human; conditions: 400 mM H2O2, 1 h treatment

| SMILES | inhibition at 30 min, 1 µM (CYP2D6) | IC50 [2] | also measured |
| --- | --- | --- | --- |
| N#CC(C#N)=NNc1cccc(Cl)c1 [CCCP, carbonyl cyanide m-chlorophenylhydrazone] | – | – | mitochondrial potential dissipation (U87MG cells [1]): about 50% |
| COc1ccc(/C=C\c2cc(OC)c(OC)c(OC)c2)cc1O [Compound 2, combretastatin A-4] | – | > 2030 nM | – |
| COc1cc(Sc2c(-c3cccnc3)[nH]c3ccccc23)cc(OC)c1OC [Compound 55, 2-(Pyridin-3-yl)-3-((3,4,5-trimethoxyphenyl)thio)-1H-indole] | < 50% | – | – |
| CC(=O)O[C@H]1C(=O)[C@@]2(C)[C@H]([C@H](OC(=O)c3ccccc3)[C@]3(O)C[C@H](OC(=O)[C@H](O)[C@@H](NC(=O)c4ccccc4)c4ccccc4)C(C)=C1C3(C)C)[C@]1(OC(C)=O)CO[C@@H]1C[C@@H]2O [PTX, paclitaxel] | – | 23 nM | – |
| CC[C@]1(O)C[C@@H]2CN(CCc3c([nH]c4ccccc34)[C@@](C(=O)OC)(c3cc4c(cc3OC)N(C)[C@H]3[C@@](O)(C(=O)OC)[C@H](OC(C)=O)[C@]5(CC)C=CCN6CC[C@]43[C@@H]65)C2)C1 [VBL, vinblastine] | – | 17 nM | IC50 (OVCAR-8): 15 ± 7 nM |
| CN/C(=N/CCSCc1nc[nH]c1C)NC#N [cimetidine] | – | – | Papp A→B at 2 h, 10 μM (Caco-2 cell permeability): 0.11 ×10⁻⁶ cm/s; Papp B→A at 2 h, 10 μM (Caco-2 cell permeability): 2.13 ×10⁻⁶ cm/s |
| OO [hydrogen peroxide] | – | – | ROS, fluorescence intensity with respect to control (U87MG cells [3]): 208% |

Continued, in another order:

| inhibition at 30 min, 1 µM (CYP2D6) | SMILES | IC50 [2] | also measured |
| --- | --- | --- | --- |
| < 50% | COc1cc(Sc2c(-n3ccnc3)[nH]c3ccccc23)cc(OC)c1OC [Compound 18, 2-(1H-Imidazol-1-yl)-3-((3,4,5-trimethoxyphenyl)thio)-1H-indole] | – | – |
| < 50% | COc1cc(Sc2c(-n3cncn3)[nH]c3ccccc23)cc(OC)c1OC [Compound 20, 2-(1H-1,2,4-Triazol-1-yl)-3-((3,4,5-trimethoxyphenyl)thio)-1H-indole] | – | – |
| < 50% | COc1cc(Sc2c(-c3ccncc3)[nH]c3ccccc23)cc(OC)c1OC [Compound 57, 2-(Pyridin-4-yl)-3-((3,4,5-trimethoxyphenyl)thio)-1H-indole] | – | – |
